# Test results as given in PMC7756341, “Liposomal FRET Assay Identifies Potent Drug‐Like Inhibitors of the Ceramide Transport Protein (CERT)” (Chemistry (Weinheim an Der Bergstrasse, Germany), 2020).
# Values joined by “and” are separate entries in the source; they are usually repeats but may differ in a detail not shown here. Equal entries are not always repeated.
# Test system: HeLa cells
# Assay: Sphingolipid content of treated HeLa cells by quantitative mass spectrometry
# Type: cell-based
# Details: HeLa, 42h, single replicates; for Cer16 / Cer18 / Cer20 / Cer22 / Cer24 / Cer24:1 / Cer total / S1P / SM16 / SM18 / SM20 / SM22 / SM24 / SM24:1 / SM total / Sph: 500.000 cells per sample
# Experimental: 5.2 Cellular experiment for lipidomic analysis
# Hela cells were cultured in six well plates (177000 cells per well) under standard growth conditions (DMEM with 4mM L-glutamine, 10% FBS, 1% Penicillin-Streptomycin; CO2 incubator with […]
# 37°C, 5% CO2). […]
# After incubation, […]
# the adherent cells were washed twice with ice-cold PBS and harvested by treatment with trypsin.
# Cells were counted using a Countess II cell counter ( Invitrogen) and adjusted to 500.000 cells per sample. Each sample was then treated as described below.
# 6. Details for experimental lipidomics
# Cells were subjected to lipid extraction using 1.5 mL methanol/chloroform (2:1, v:v) as described. The extraction solvent contained C17-ceramide (Cer17) and C16 -d31-sphingomyelin (d31-SM16) (both Avanti Polar Lipids, Alabaster, USA) as internal standards. Chromatographic separations were achieved on a 1260 Infinity HPLC (Agilent Technologies, Waldbronn, Germany) equipped with a Poroshell 120 EC-C8 column (3.0 × 150 mm, 2.7 µm; Agilent Technologies). A mobile phase system consisting of water (solvent A) and acetonitrile/methanol (1:1, v:v; solvent B), both acidified with 0.1% formic acid, was used for gradient elution at an initial composition of 40:60 (A:B, v:v) and a flow rate of 0.5 mL/min. MS/MS analyses were carried out using a 6490 triple-quadrupole mass spectrometer (Agilent Technologies) operating in the positive electrospray ionization mode (ESI+). The following ion source parameters were set: sheath gas temperature, 375 °C; sheath gas flow, 12 L/min of nitrogen; nebulizer pressure, 30 psi; drying gas temperature, 200 °C; drying gas flow, 15 L/min of nitrogen; capillary voltage, 4000 V; nozzle voltage, 1500 V; iFunnel high pressure RF voltage, 150 V and iFunnel low pressure RF voltage, 60 V. The following mass transitions were recorded (collision energies of 25 eV for all transitions): ceramides: m/z […]
# with MassHunter Software (Agilent Technologies). Significance of differences between two samples was calculated by student’s t -test. Asterisks indicate significant differences between treated and untreated samples: * p<0.05; ** p<0.01; *** p<0.005.
# Table S1. Sphingolipid content of treated cells.
# (1 picture or pasted object on this page, not shown here)
structure (smiles),measurement,setting,value
"CCCCCCCCCCCC(=O)NC(CO)CC(O)c1ccccc1 (stereo not drawn) [HPA-12, N-(3Hydroxy-1-hydroxymethyl-3-phenylpropyl)-dodecamide]",Cer16,1 µM,"48,20 pmol/sample and 45,94 pmol/sample and 44,92 pmol/sample"
same,Cer18,1 µM,"3,35 pmol/sample and 2,85 pmol/sample and 3,38 pmol/sample"
same,Cer20,1 µM,"1,15 pmol/sample and 0,88 pmol/sample and 1,18 pmol/sample"
same,Cer22,1 µM,"8,47 pmol/sample and 7,59 pmol/sample and 8,53 pmol/sample"
same,Cer24,1 µM,"25,47 pmol/sample and 26,70 pmol/sample and 25,58 pmol/sample"
same,Cer24:1,1 µM,"64,01 pmol/sample and 60,79 pmol/sample and 68,53 pmol/sample"
same,Cer total,1 µM,"150,65 pmol/sample and 143,74 pmol/sample and 153,13 pmol/sample"
same,S1P,1 µM,"1,34 pmol/sample and 1,27 pmol/sample and 1,52 pmol/sample"
same,SM16,1 µM,"1695,91 pmol/sample and 1668,53 pmol/sample and 1609,69 pmol/sample"
same,SM18,1 µM,"47,55 pmol/sample and 44,39 pmol/sample and 46,43 pmol/sample"
same,SM20,1 µM,"15,20 pmol/sample and 14,34 pmol/sample and 14,30 pmol/sample"
same,SM22,1 µM,"91,42 pmol/sample and 86,76 pmol/sample and 85,97 pmol/sample"
same,SM24,1 µM,"147,79 pmol/sample and 134,40 pmol/sample and 140,17 pmol/sample"
same,SM24:1,1 µM,"708,14 pmol/sample and 660,22 pmol/sample and 659,25 pmol/sample"
same,SM total,1 µM,"2706,02 pmol/sample and 2608,64 pmol/sample and 2555,82 pmol/sample"
same,Sph,1 µM,"3,87 pmol/sample and 3,57 pmol/sample and 3,94 pmol/sample"
same,ratio total SM/Cer,1 µM,"17,7 and 17,3 and 17,8"
same,Cer16,2.5 µM,"45,72 pmol/sample and 45,34 pmol/sample and 45,94 pmol/sample"
same,Cer18,2.5 µM,"2,82 pmol/sample and 3,05 pmol/sample and 2,77 pmol/sample"
same,Cer20,2.5 µM,"0,99 pmol/sample and 0,90 pmol/sample and 0,94 pmol/sample"
same,Cer22,2.5 µM,"8,93 pmol/sample (2×) and 7,27 pmol/sample"
same,Cer24,2.5 µM,"29,39 pmol/sample and 22,20 pmol/sample and 31,70 pmol/sample"
same,Cer24:1,2.5 µM,"64,09 pmol/sample and 55,48 pmol/sample and 66,75 pmol/sample"
same,Cer total,2.5 µM,"151,94 pmol/sample and 134,23 pmol/sample and 157,03 pmol/sample"
same,S1P,2.5 µM,"1,60 pmol/sample and 1,73 pmol/sample and 1,58 pmol/sample"
same,SM16,2.5 µM,"1489,44 pmol/sample and 1440,97 pmol/sample and 1448,69 pmol/sample"
same,SM18,2.5 µM,"53,85 pmol/sample and 43,84 pmol/sample and 45,37 pmol/sample"
same,SM20,2.5 µM,"20,27 pmol/sample and 13,88 pmol/sample and 14,55 pmol/sample"
same,SM22,2.5 µM,"75,95 pmol/sample and 76,48 pmol/sample and 75,20 pmol/sample"
same,SM24,2.5 µM,"129,06 pmol/sample and 114,60 pmol/sample and 121,10 pmol/sample"
same,SM24:1,2.5 µM,"524,32 pmol/sample and 581,92 pmol/sample and 555,40 pmol/sample"
same,SM total,2.5 µM,"2229,23 pmol/sample and 2350,50 pmol/sample and 2245,18 pmol/sample"
same,Sph,2.5 µM,"2,13 pmol/sample and 3,27 pmol/sample and 2,40 pmol/sample"
same,ratio total SM/Cer,2.5 µM,"14,2 and 15,5 and 16,7"
same,Cer16,5 µM,"43,83 pmol/sample and 46,26 pmol/sample and 43,34 pmol/sample"
same,Cer18,5 µM,"2,50 pmol/sample and 2,62 pmol/sample and 2,51 pmol/sample"
same,Cer20,5 µM,"0,74 pmol/sample and 0,81 pmol/sample and 0,73 pmol/sample"
same,Cer22,5 µM,"6,88 pmol/sample and 6,54 pmol/sample and 6,85 pmol/sample"
same,Cer24,5 µM,"20,93 pmol/sample and 21,64 pmol/sample and 23,60 pmol/sample"
same,Cer24:1,5 µM,"53,37 pmol/sample and 55,90 pmol/sample and 57,30 pmol/sample"
same,Cer total,5 µM,"128,26 pmol/sample and 133,78 pmol/sample and 134,34 pmol/sample"
same,S1P,5 µM,"1,43 pmol/sample and 1,97 pmol/sample and 1,45 pmol/sample"
same,SM16,5 µM,"1306,31 pmol/sample and 1249,58 pmol/sample and 1356,77 pmol/sample"
same,SM18,5 µM,"41,78 pmol/sample and 39,06 pmol/sample and 41,13 pmol/sample"
same,SM20,5 µM,"12,76 pmol/sample and 12,48 pmol/sample and 12,54 pmol/sample"
same,SM22,5 µM,"68,87 pmol/sample and 67,07 pmol/sample and 70,68 pmol/sample"
same,SM24,5 µM,"101,53 pmol/sample and 101,48 pmol/sample and 113,95 pmol/sample"
same,SM24:1,5 µM,"471,40 pmol/sample and 487,46 pmol/sample and 521,22 pmol/sample"
same,SM total,5 µM,"2002,66 pmol/sample and 1957,13 pmol/sample and 2116,29 pmol/sample"
same,Sph,5 µM,"3,33 pmol/sample and 3,81 pmol/sample and 3,47 pmol/sample"
same,ratio total SM/Cer,5 µM,"15,6 and 14,6 and 15,8"
